Measured values as given in paper PMC11054638, “Transport of Non-Steroidal Anti-Inflammatory Drugs across an Oral Mucosa Epithelium In Vitro Model” (Pharmaceutics, 2024).

Assays:
[1] = CXlogD at pH 7.4 ref https://ebi.ac.uk (02.04.2024); cited from earlier work
[2] = tested on: TR146 oral mucosa in vitro model; assay: High-throughput (96.96) qPCR chip, mRNA expression after inflammation studies; assay type: cell-based, human; settings: 48 h, normalised to control; mean ± SD
Protocol: ThinCerts® were seeded with cells as described above. […] Three days before the experiments, cell layers and blanks were washed twice on the basolateral compartment with 900 µL cultivation media (DMEM supplemented with 10% Fetal Calf Serum and 1% Penicillin/Streptomycin) to remove anti-inflammatory hydrocortisone residues (a component of media supplement HKGS) and were further cultivated in cultivation media.
Prior to treating cells with prepared DMEM solutions, TEER was measured in cultivation media DMEM supplemented with 1% Penicillin/Streptomycin and 10% Fetal Calf Serum. Subsequently, cell layers and blanks were washed with DMEM (without supplements) twice on the apical and basolateral compartment, followed by TEER measurements in DMEM. Media of cells were replaced with previously prepared DMEM solutions. Control media was applied on the blanks. […] Subsequently, 10 µM carboxyfluorescein was added to the apical DMEM solutions and incubated in the incubator at 37 °C for 2 h. Media were immediately collected and measured for the RFU content using the EnSpire as described above. Afterwards, media were stored at −20 °C until further usage. Two cell-grown ThinCerts^TM of each treatment were pooled as one sample with 350 µL lysis buffer supplemented with 1% ß-mercaptoethanol and stored at −80 °C for RNA isolation.
In short, RNA samples collected at the 48-hour timepoint of the inflammation studies and generated by pooling two cell-grown inserts were tested as duplicates on the expression of 95 markers and 1 negative control (H2O). The mRNA samples were amplified with three different primer pools containing 54 primers (PPIA, ACTB, GAPDH, B2M, CLDN1, CLDN2, CLDN3, CLDN4, CLDN5, CLDN6, CLDN7, CLDN8, CLDN9, CLDN10tva, […]
MARVELD2, ZO-1, ZO-2, ZO-3, SLC2A1, SLC7A1, SLC7A5, SLC16A1, ABCB1, ABCC1, ABCC2, ABCC3, ABCC4, ABCC5, ABCG2, INSR, LRP1, TFRC, VEGF-A, CDH5, VWF), 32 primers (CK1, CK4, […]
Quality control of generated data excluded Ct measured outside of the marker’s melting temperature ± 1.5 °C. To calculate the relative expression for each marker, the relative quantitative value was first calculated by subtracting the mean Ct values of control samples from the Ct values of treated samples and potentiating the resulting ΔCt by the power of 2 (=2ΔCt). The geometric mean of housekeeping genes […]
the relative quantitative value of each marker was divided by the calculated geometric mean of housekeeping genes of the respective sample. Subsequent expression values of treated samples were […]
Tested RNA samples were collected after three independent experiments with 4 treatment groups (Control, INF, INF+Ibu, Ibu) per experiment (N=12). Statistical analysis was performed as two-way ANOVA with post hoc Holm–Sidak test with *p<0.05, **p<0.01, ***p<0.001 and […]

CC(C)Cc1ccc(C(C)C(=O)O)cc1 (stereo not shown) [ibuprofen]
XlogD [1]: 1.34
ABCB1 mRNA expression [2]: 1.01± 0.04 n-fold
ABCC1 mRNA expression [2]: 1.26± 0.46 n-fold
ABCC2 mRNA expression [2]: 0.7± 0.65 n-fold
ABCC3 mRNA expression [2]: 0.97± 1.21 n-fold
ABCC4 mRNA expression [2]: 1.46± 0.5 n-fold
ABCC5 mRNA expression [2]: 0.69± 0.34 n-fold
ABCG2 mRNA expression [2]: 0.87± 1.23 n-fold
AMY mRNA expression [2]: 0.38± 0.43 n-fold
AQP1 mRNA expression [2]: 0.34± 0.19 n-fold
AQP3 mRNA expression [2]: 0.76± 0.67 n-fold
AQP5 mRNA expression [2]: 1.57± 1.16 n-fold
AQP9 mRNA expression [2]: 0.93± 0.04 n-fold
AQP10 mRNA expression [2]: 1.38± 0.72 n-fold
AQP11 mRNA expression [2]: 0.66 ± 0.07 n-fold
CDH1 mRNA expression [2]: 0.93± 0.62 n-fold
CK1 mRNA expression [2]: 11.98± 16.81 n-fold
CK4 mRNA expression [2]: 1.53± 1.73 n-fold
CK5 mRNA expression [2]: 0.27± 0.28 n-fold
CK7 mRNA expression [2]: 3.07± 2.11 n-fold
CK8 mRNA expression [2]: 0.92± 0.68 n-fold
CK10 mRNA expression [2]: 1.63± 2.38 n-fold
CK13tv1 mRNA expression [2]: 1.34± 0.93 n-fold
CK14 mRNA expression [2]: 1.53± 0.93 n-fold
CK18 mRNA expression [2]: 0.79± 0.85 n-fold
CK19 mRNA expression [2]: 1.53± 0.26 n-fold
CLDN1 mRNA expression [2]: 0.52± 0.71 n-fold
CLDN2 mRNA expression [2]: 5.02 n-fold
CLDN3 mRNA expression [2]: 1.95 n-fold
CLDN4 mRNA expression [2]: 0.74± 1.1 n-fold
CLDN5 mRNA expression [2]: 7.17± 10.76 n-fold
CLDN6 mRNA expression [2]: 1.83± 0.78 n-fold
CLDN7 mRNA expression [2]: 0.51± 0.72 n-fold
CLDN8 mRNA expression [2]: 0.49± 0.46 n-fold
CLDN9 mRNA expression [2]: 1.07± 1.46 n-fold
CLDN10tva mRNA expression [2]: 1.49± 2.21 n-fold
CLDN11 mRNA expression [2]: 0.6± 0.1 n-fold
CLDN12tv1 mRNA expression [2]: 0.73± 0.3 n-fold
CLDN12tv2 mRNA expression [2]: 0.47± 0.35 n-fold
CLDN12tv3 mRNA expression [2]: 0.79± 0.25 n-fold
CLDN14 mRNA expression [2]: 1.51 n-fold
CLDN15 mRNA expression [2]: 0.98± 0.96 n-fold
CLDN16 mRNA expression [2]: 1.79± 1.1 n-fold
CLDN17 mRNA expression [2]: 1.66± 1.15 n-fold
CLDN18tv2a mRNA expression [2]: 6.08± 8.62 n-fold
CLDN21 mRNA expression [2]: 1.29 n-fold
CLDN22 mRNA expression [2]: 0.4± 0.53 n-fold
CLDN24 mRNA expression [2]: 0.62 n-fold
CLDN25tv1-4 mRNA expression [2]: 0.65± 0.77 n-fold
CLDN25tv7 mRNA expression [2]: 1.34± 0.38 n-fold
CLDN27 mRNA expression [2]: 0.26 n-fold
DSG3 mRNA expression [2]: 0.83± 0.85 n-fold
INSR mRNA expression [2]: 0.52± 0.39 n-fold
JAM1 mRNA expression [2]: 0.5± 0.67 n-fold
JAM2 mRNA expression [2]: 0.55 n-fold
LOR mRNA expression [2]: 2.69± 2.89 n-fold
LRP1 mRNA expression [2]: 0.68± 0.36 n-fold
MARVELD2 mRNA expression [2]: 2.92± 1.97 n-fold
MFSD2A mRNA expression [2]: 0.85± 0.6 n-fold
MUC1A mRNA expression [2]: 0.53± 0.42 n-fold
MUC1B mRNA expression [2]: 0.81± 0.36 n-fold
MUC3A mRNA expression [2]: 2.34± 2.52 n-fold
MUC5AC mRNA expression [2]: 0.76± 0.17 n-fold
MUC15tv2 mRNA expression [2]: 0.46± 0.21 n-fold
MUC18 mRNA expression [2]: 0.89± 0.56 n-fold
MUC20 mRNA expression [2]: 1.43± 0.61 n-fold
OCLN mRNA expression [2]: 1.16± 1.05 n-fold
PECAM1 mRNA expression [2]: 0.77 n-fold
SLC2A1 mRNA expression [2]: 0.4± 0.26 n-fold
SLC7A1 mRNA expression [2]: 0.54± 0.49 n-fold
SLC7A5 mRNA expression [2]: 0.56± 0.91 n-fold
SLC16A1 mRNA expression [2]: 0.32± 0.48 n-fold
TFRC mRNA expression [2]: 0.79± 0.87 n-fold
VEGF-A mRNA expression [2]: 0.5± 0.27 n-fold
VIM mRNA expression [2]: 0.56± 0.52 n-fold
VWF mRNA expression [2]: 1.28 n-fold
ZO-1 mRNA expression [2]: 0.91± 0.81 n-fold
ZO-2 mRNA expression [2]: 1.26± 0.5 n-fold
ZO-3 mRNA expression [2]: 0.51± 0.84 n-fold
